PMC5065774 (Bioorganic & medicinal chemistry, 2016)

How the values were obtained:
HDAC1 = HDAC1 (Homo sapiens, UniProt Q13547); assay: HDAC isozyme panel at BPS Bioscience, HDAC1; assay type: biochemical; details: read-out: % inhibition of HDAC1
HDAC3 = HDAC3 (Homo sapiens, UniProt O15379); assay: HDAC isozyme panel at BPS Bioscience, HDAC3; assay type: biochemical; details: read-out: % inhibition of HDAC3
HDAC6 = biological target: T1, HDAC6 (Homo sapiens, UniProt Q9UBN7); assay: HDAC isozyme panel at BPS Bioscience, HDAC6; assay type: biochemical; details: read-out: % inhibition of HDAC6
T1 sequence (Q9UBN7 1-1215): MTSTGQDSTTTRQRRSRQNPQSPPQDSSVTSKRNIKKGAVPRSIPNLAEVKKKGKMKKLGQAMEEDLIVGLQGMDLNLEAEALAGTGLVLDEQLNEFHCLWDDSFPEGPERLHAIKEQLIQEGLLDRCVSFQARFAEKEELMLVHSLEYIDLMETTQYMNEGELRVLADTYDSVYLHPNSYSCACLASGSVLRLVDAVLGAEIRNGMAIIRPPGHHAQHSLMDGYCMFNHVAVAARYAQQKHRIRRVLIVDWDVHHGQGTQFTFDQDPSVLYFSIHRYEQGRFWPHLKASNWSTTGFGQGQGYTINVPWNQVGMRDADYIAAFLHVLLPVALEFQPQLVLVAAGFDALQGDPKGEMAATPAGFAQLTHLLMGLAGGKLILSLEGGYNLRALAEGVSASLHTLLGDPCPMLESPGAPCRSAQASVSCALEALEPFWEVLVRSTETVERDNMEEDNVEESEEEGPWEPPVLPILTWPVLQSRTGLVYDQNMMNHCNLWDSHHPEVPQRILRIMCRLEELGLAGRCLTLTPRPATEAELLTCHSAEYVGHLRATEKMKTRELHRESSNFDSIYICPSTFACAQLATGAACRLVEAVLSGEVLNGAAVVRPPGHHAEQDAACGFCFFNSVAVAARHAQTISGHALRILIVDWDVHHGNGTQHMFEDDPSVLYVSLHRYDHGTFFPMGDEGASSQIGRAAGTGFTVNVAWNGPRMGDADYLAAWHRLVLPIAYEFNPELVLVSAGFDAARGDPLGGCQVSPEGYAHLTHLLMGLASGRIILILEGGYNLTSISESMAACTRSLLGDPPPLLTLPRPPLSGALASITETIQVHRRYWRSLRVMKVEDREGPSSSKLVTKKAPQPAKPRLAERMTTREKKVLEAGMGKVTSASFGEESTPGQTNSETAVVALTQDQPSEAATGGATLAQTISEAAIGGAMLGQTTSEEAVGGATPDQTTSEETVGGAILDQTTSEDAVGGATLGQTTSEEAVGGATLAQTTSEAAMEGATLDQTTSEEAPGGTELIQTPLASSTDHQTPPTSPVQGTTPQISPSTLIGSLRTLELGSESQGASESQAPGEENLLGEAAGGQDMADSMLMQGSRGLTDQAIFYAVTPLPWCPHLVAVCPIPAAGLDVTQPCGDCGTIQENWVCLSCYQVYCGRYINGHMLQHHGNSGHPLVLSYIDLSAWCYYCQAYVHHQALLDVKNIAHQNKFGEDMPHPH

HDAC10 = biological target: T2, HDAC10 (Homo sapiens, UniProt Q969S8); assay: HDAC isozyme panel at BPS Bioscience, HDAC10; assay type: biochemical; details: read-out: % inhibition of HDAC10
T2 sequence (Q969S8 1-669): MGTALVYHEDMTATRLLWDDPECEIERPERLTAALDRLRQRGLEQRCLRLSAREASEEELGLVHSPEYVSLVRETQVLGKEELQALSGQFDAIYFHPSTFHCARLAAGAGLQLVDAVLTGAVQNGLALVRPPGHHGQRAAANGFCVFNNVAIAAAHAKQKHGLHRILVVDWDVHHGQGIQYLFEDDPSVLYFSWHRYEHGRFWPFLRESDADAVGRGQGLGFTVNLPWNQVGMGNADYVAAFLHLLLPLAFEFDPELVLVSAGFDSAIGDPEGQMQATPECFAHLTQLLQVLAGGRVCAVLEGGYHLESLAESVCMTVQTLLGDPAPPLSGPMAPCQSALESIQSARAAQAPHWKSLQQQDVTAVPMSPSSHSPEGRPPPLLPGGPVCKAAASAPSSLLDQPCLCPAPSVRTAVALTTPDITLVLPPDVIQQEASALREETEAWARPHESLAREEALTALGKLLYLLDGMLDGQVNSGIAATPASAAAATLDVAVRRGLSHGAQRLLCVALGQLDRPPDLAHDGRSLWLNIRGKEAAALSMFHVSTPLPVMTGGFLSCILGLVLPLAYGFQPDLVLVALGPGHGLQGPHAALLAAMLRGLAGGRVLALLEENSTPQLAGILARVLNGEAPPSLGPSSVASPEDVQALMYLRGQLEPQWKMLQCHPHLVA

[1] = tested on: TALL-104 CTL human leukemia cells; assay: Cytotoxic T-lymphocyte; assay type: cell-based; details: 100 μM

Chain of HDAC3 (O15379 whole entry): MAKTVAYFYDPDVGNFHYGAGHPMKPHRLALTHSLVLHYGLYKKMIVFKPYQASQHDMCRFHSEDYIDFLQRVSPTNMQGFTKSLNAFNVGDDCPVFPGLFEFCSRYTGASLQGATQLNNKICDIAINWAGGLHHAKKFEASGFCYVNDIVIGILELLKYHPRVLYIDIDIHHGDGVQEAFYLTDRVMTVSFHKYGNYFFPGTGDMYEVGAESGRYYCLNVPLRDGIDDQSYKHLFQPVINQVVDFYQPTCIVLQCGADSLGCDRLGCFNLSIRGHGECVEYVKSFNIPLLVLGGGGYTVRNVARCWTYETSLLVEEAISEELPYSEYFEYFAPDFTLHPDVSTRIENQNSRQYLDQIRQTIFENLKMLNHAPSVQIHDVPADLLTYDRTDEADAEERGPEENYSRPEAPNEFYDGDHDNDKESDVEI
Chain of HDAC3 (Q9Y618 395-489 partner limits assumed): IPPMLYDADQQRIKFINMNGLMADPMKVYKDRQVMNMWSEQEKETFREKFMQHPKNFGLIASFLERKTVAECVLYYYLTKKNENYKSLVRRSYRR
Chain of HDAC1 (Q13547 whole entry): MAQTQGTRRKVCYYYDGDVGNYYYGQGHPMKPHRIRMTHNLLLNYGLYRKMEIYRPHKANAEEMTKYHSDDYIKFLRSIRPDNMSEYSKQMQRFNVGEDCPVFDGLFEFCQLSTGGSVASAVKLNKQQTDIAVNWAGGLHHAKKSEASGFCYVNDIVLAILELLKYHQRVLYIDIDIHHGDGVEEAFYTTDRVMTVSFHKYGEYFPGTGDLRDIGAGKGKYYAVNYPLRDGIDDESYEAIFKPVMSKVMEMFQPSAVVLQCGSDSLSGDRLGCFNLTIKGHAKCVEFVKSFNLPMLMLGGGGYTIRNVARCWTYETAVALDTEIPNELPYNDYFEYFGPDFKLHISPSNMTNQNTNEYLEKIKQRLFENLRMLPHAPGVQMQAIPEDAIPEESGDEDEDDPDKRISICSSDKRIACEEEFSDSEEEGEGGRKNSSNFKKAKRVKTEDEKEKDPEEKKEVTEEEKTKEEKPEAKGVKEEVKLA

SMILES | inhibition at 10 µM (HDAC1) [%] | inhibition at 10 µM (HDAC3) [%] | inhibition at 10 µM (HDAC6) [%] | inhibition at 10 µM (HDAC10) [%] | augmentation of CD3-stimulated anti-LAMP fluorescence increases (lytic granule exocytosis) [1] [%]
O=C(CCCCCCC(=O)Nc1ccccc1)NO [SAHA, suberoylanilide hydroxamic acid] | 100 ± 0.3 | 99 ± 0.7 | 100 | 100 | 
CCOC(=O)NCCCC(=O)Nc1ccc(CO[Si](C)(C)C(C)(C)C)cc1 [Compound 27, Ethyl (4-((4-(((tert-butyldimethylsilyl)oxy)methyl)phenyl)amino)-4-oxobutyl)carbamate] |  |  |  |  | 26
CCOC(=O)NCCCC(=O)Nc1ccc(O[Si](C)(C)C(C)(C)C)cc1 [Compound 28, Ethyl (4-((4-((tert-butyldimethylsilyl)oxy)phenyl)amino)-4-oxobutyl)carbamate] |  |  |  |  | 71
